Measurements: patent US8673929B2, “4,6-di- and 2,4,6-trisubstituted quinazoline derivatives and pharmaceutical compositions useful for treating viral infections” (priority 2006, dated 2014)

Key:
HCV replicon = test: Anti-HCV replicon assay, EC50 (luciferase readout); format: cell-based; details: Hepatitis C virus, 72 h; Huh-7 HCV replicon cells, 3 days incubation, luciferase luminescence
Description: (§1) The anti HCV activity of the quinazoline derivatives of this invention was tested in a human hepatoma Huh-7 cell line harbouring a HCV replicon. The assay comprised the following steps:
(§2) Step 1: compound preparation and serial dilution • 1. for water soluble quinazoline derivatives, a volume of 500 μL of solution in cell media (DMEM, 10% FBS, P/S, L-Glutamine) was prepared with a concentration being twice the concentration of the starting final serial dilution concentration. A volume of 150 μL of the solution was added to the pre-specified wells in column 1 of a 96-well cell culture plate (PerkinElmer, white plate, cat. #6005181, for EC50 assay; black plate, cat. #6005182 for CC50 assay). The rest of the plate, columns 2-12, was filled with 100 μL of cell media. The plate was then placed on a Precision 2000 Workstation to start the serial dilution. Compounds were diluted three times each step from column 1 to column 10. Column 11 was used as a blank control (no compound added). • 2. for quinazoline derivatives requiring DMSO to dissolve, serial dilution is performed in 50% DMSO in a 384-well plate. A solution containing a compound at 100-fold concentration of the starting final serial dilution concentration was prepared in 50% DMSO and added to the pre-specified wells in column 1 of a polypropylene 384-well plate. The plate was then placed on a Precision 2000 Workstation to start the serial dilution. After the serial dilution, a volume of 2 μL of the solution was transferred from the 384-well plate to a 96-well cell culture plate containing 100 μL of cell media on a Biomek FX Workstation. The DMSO concentration in the final assay condition was 0.5% after cells are added to the plate and the total volume in each well is brought to 200 μL.
(§3) Step 2: to each well of the serial dilution plate prepared above, 100 μL of cell media containing 6000 suspended Huh-7 HCV replicon cells was added with a Multidrop workstation. The plates were incubated for 3 days at 37° C. with 5% CO2.
(§4) Step 3: detection: • a) for the EC50 assay, the media in a 96-well cell culture plate was aspirated with a Biotek EL405 plate-washer. A volume of 200 μL of a solution containing a 1:1 mixture of cell-lysis buffer (Promega, Luciferase Cell Culture Lysis 5× Reagent, cat. #E1531) and luciferase substrate solution (Promega, Luciferase Assay, cat.# E4550) was added to each well of the plate with Multidrop. The plate was incubated for 30 minutes at room temperature before the luminescence signal was measured with a TopCount plate-reader. • b) for the CC50 assay, a volume of 100 μL of pre-mixed CellTiter-Glo (Promega, cat.# G7572) solution is added directly to the cell culture in each well of the plate and the luminescence signal is measured with a TopCount plate-reader after 10 minutes of incubation at room temperature.
(§5) Results in the table below are expressed by the following data: • the 50% cytostatic concentration (CC50), i.e. the concentration that results in 50% inhibition of cell growth, and • the 50% effective concentration (EC50), i.e. the concentration that […].

[1] = CC50 assay in the anti-HCV replicon assay (CellTiter-Glo); format: cell-based, human; details: human, Huh-7 hepatoma cells harbouring an HCV replicon; Huh-7 HCV replicon cells, 3 days incubation, CellTiter-Glo luminescence
Description: as §1, §2, §3, §4, §5

Compound	EC50 (HCV replicon)	CC50 at 3 days [1]
CC(C)Oc1nc(N)nc2ccc(-c3ccccc3OCc3ccccc3)cc12 [Example 98, 6-(2-Benzyloxy-phenyl)-4-isopropoxy-quinazolin-2-ylamine]	1 to 10 µM	< 10 µM
CC(C)Oc1nc(N)nc2ccc(-c3ccc(C#N)cc3)cc12 [Example 99, 4-(2-Amino-4-isopropoxy-quinazolin-6-yl)-benzonitrile]	0.3 to 1 µM	> 20 µM
CC(C)Oc1nc(N)nc2ccc(-c3ccc(O)cc3)cc12 [Example 100, 4-(2-Amino-4-isopropoxy-quinazolin-6-yl)-phenol]	< 0.3 µM	10 to 20 µM
CC(C)Oc1nc(N)nc2ccc(-c3cnc4ccccc4c3)cc12 [Example 101, 4-Isopropoxy-6-quinolin-3-yl-quinazolin-2-ylamine]	1 to 10 µM	10 to 20 µM
Nc1nc(OCC2CCC2)c2cc(-c3ccc(F)cc3F)ccc2n1 [Example 102, 4-Cyclobutylmethoxy-6-(2,4-difluoro-phenyl)-quinazolin-2-ylamine]	1 to 10 µM	< 10 µM
Nc1nc(OCC2CCC2)c2cc(-c3ccc(F)cc3)ccc2n1 [Example 103, 4-Cyclobutylmethoxy-6-(4-fluoro-phenyl)-quinazolin-2-ylamine]	1 to 10 µM	10 to 20 µM
Nc1nc(OCC2CCC2)c2cc(-c3cccc(F)c3F)ccc2n1 [Example 104, 4-Cyclobutylmethoxy-6-(2,3-difluoro-phenyl)-quinazolin-2-ylamine]	1 to 10 µM	> 20 µM
Cc1ccccc1-c1ccc2nc(N)nc(OCC3CCC3)c2c1 [Example 105, 4-Cyclobutylmethoxy-6-o-tolyl-quinazolin-2-ylamine]	1 to 10 µM	10 to 20 µM
Nc1nc(OCC2CCC2)c2cc(-c3cccc(C(F)(F)F)c3)ccc2n1 [Example 106, 4-Cyclobutylmethoxy-6-(3-trifluoromethyl-phenyl)-quinazolin-2-ylamine]	1 to 10 µM	10 to 20 µM
Cc1ccc(-c2ccc3nc(N)nc(OCC4CCC4)c3c2)cc1 [Example 107, 4-Cyclobutylmethoxy-6-p-tolyl-quinazolin-2-ylamine]	1 to 10 µM	> 20 µM
Nc1nc(OCC2CCC2)c2cc(-c3ccc(Cl)cc3Cl)ccc2n1 [Example 108, 4-Cyclobutylmethoxy-6-(2,4-dichloro-phenyl)-quinazolin-2-ylamine]	1 to 10 µM	> 20 µM
CCOc1ccc(-c2ccc3nc(N)nc(OCC4CCC4)c3c2)cc1 [Example 109, 4-Cyclobutylmethoxy-6-(4-ethoxy-phenyl)-quinazolin-2-ylamine]	1 to 10 µM	> 20 µM
Nc1nc(OCC2CCC2)c2cc(-c3ccc(F)cc3Cl)ccc2n1 [Example 110, 4-Cyclobutylmethoxy-6-(2-chloro-4-fluoro-phenyl)-quinazolin-2-ylamine]	1 to 10 µM	10 to 20 µM
Nc1nc(OCC2CCC2)c2cc(-c3ccoc3)ccc2n1 [Example 111, 4-Cyclobutylmethoxy-6-furan-3-yl-quinazolin-2-ylamine]	0.3 to 1 µM	10 to 20 µM
Nc1nc(OCC2CCC2)c2cc(-c3ccc(F)c(Cl)c3)ccc2n1 [Example 112, 4-Cyclobutylmethoxy-6-(3-chloro-4-fluoro-phenyl)-quinazolin-2-ylamine]	1 to 10 µM	> 20 µM
Nc1nc(OCC2CCC2)c2cc(-c3ccn[nH]3)ccc2n1 [Example 113, 4-Cyclobutylmethoxy-6-(2H-pyrazol-3-yl)-quinazolin-2-ylamine]	0.3 to 1 µM	10 to 20 µM
Nc1nc(OCC2CCC2)c2cc(-c3cc4ccccc4o3)ccc2n1 [Example 114, 6-Benzofuran-2-yl-4-cyclobutylmethoxy-quinazolin-2-ylamine]	1 to 10 µM	10 to 20 µM
Nc1nc(OCC2CCC2)c2cc(-c3ccco3)ccc2n1 [Example 116, 4-Cyclobutylmethoxy-6-furan-2-yl-quinazolin-2-ylamine]	1 to 10 µM	> 20 µM
